Holding throughout (test): Kinase inhibition assay, IC50 (Table A)
Holding throughout (assay type): biochemical

Test [1] concerns the target ACK1 (Homo sapiens, UniProt Q07912). To be noted: Enzyme ACK1. As for the experimental part: (§1) The inhibiting activity of putative kinase inhibitors and the potency of selected compounds is determined through a method of assay based on the use of the Kinase-Glo® Luminescent Kinase Assay (commercially available from Promega corporation and described in Koresawa, M. and Okabe, T. (2004) High-throughput screening with quantitation of ATP consumption: A universal non-radioisotope, homogeneous assay for protein kinase. Assay Drug Dev. Technol. 2, 153-60).
(§2) The inhibitory activity of putative kinase inhibitors and the potency of selected compounds were also determined using a trans-phosphorylation assay.
(§3) Specific peptide or protein substrates are trans-phosphorylated by their specific ser-thr or tyr kinase in the presence of ATP traced with ^33P-γ-ATP, and in the presence of their own optimal buffer and cofactors. At the end of the phosphorylation reaction, more than 98% unlabeled ATP and radioactive ATP is captured by an excess of the ion exchange dowex resin; the resin then settles down to the bottom of the reaction plate by gravity. Supernatant is subsequently withdrawn and transferred into a counting plate, then evaluated by β-counting.
(§4) Reaction conditions are target (enzyme) dependent and thus undergo individual adaptations. Also the buffer conditions may vary depending on the kinase of interest. The assay can be used with virtually any kinase and substrate combination and is suitable for all type of protein kinases, such as ABL, ACK1, AKT1, ALK, AUR1, AUR2, BRK, BUB1, CDC7/DBF4, CDK21CYCA, CHK1, CK2, EEF2K, EGFR1, EphA2, EphB4, ERK2, FAK, FGFR1, FLT3, GSK3beta, Haspin, IGFR1, IKK2, IR, JAK1, JAK2, JAK3, KIT, LCK, LYN, MAPKAPK2, MELK, MET, MNK2, MPSI, MST4, NEK6, NIM1, P38alpha, PAK-4, PDGFR, PDK1, PERK, PIM1, PIM2, PKAalpha, PKCbeta, PLK1, RET, ROS1, SULU1, Syk, TLK2, TRKA, TYK, VEGFR2, VEGFR3, ZAP70.

The target in test [2] is ABL (Homo sapiens, UniProt P00519). As to conditions: Enzyme ABL. Here is the method: as §1, §2, §3, §4
ABL, sequence (P00519 whole entry): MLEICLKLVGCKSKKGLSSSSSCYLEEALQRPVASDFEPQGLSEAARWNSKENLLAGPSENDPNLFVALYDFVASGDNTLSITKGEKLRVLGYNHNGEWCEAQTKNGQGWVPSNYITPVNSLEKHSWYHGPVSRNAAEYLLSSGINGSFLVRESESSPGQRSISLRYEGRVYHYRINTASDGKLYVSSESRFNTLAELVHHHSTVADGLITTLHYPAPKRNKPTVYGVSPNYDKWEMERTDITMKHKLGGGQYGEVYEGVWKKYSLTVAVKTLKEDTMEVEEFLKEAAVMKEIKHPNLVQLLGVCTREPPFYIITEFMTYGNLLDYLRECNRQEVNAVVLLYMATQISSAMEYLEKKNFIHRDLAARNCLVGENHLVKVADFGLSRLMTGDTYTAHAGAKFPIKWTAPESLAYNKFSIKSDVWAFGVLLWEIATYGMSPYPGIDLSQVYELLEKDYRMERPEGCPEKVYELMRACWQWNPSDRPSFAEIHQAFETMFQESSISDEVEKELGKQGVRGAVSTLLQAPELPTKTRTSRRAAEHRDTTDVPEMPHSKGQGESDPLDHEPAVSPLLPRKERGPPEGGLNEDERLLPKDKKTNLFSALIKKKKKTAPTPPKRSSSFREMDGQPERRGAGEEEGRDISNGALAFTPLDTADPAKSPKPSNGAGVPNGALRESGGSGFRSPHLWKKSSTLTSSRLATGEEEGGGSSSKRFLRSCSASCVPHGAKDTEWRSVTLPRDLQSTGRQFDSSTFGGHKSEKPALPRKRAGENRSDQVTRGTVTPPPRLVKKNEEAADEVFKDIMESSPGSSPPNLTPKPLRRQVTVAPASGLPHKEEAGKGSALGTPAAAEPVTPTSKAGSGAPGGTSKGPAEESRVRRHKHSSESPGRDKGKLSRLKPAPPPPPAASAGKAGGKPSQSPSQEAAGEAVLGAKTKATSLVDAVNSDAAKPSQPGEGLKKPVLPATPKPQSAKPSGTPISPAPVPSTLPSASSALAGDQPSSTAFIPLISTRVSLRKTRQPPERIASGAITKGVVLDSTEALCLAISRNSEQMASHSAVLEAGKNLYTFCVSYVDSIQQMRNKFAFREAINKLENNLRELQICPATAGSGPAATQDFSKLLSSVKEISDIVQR
Test [3] addresses BRK (Homo sapiens, UniProt Q13882). As to conditions: Enzyme BRK. Here is the method: as §1, §2, §3, §4
The target in test [4] is KIT (Homo sapiens, UniProt P10721). To be noted: Enzyme KIT. As for the experimental part: as §1, §2, §3, §4
KIT, sequence (P10721 26-976): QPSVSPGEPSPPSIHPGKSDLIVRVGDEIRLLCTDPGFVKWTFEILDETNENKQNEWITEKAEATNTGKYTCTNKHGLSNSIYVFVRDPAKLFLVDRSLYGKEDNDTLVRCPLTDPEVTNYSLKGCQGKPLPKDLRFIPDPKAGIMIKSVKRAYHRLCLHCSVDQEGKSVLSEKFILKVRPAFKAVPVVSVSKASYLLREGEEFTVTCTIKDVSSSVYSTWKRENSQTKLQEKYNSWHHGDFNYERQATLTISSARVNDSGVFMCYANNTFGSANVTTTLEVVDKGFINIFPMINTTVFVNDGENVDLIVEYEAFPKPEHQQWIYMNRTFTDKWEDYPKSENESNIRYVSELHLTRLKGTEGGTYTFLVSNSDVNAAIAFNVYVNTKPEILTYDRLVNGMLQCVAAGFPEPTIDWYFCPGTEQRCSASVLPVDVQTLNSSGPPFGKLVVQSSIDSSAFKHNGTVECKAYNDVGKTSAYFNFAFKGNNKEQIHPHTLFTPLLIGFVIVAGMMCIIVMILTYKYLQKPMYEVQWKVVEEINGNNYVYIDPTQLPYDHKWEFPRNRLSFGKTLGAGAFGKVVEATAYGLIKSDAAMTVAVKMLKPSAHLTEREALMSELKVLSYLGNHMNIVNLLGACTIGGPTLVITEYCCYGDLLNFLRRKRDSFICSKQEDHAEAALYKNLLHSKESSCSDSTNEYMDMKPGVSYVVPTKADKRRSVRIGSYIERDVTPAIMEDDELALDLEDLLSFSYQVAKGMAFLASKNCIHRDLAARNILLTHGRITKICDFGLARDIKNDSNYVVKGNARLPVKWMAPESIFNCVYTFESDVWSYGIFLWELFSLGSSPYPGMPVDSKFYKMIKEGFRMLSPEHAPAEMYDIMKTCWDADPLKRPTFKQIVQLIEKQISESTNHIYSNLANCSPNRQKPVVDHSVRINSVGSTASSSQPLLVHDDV
Test [5] addresses LCK (Homo sapiens, UniProt P06239). As to conditions: Enzyme LCK. Here is the method:
as §1, §2, §3, §4

Values joined by “and” are separate entries in the source; they are usually repeats but may differ in a detail not shown here. Identical values can stand only once.

As usually defined, the IC50 is the concentration needed to halve the response being measured.

ACK1, sequence (Q07912 whole entry): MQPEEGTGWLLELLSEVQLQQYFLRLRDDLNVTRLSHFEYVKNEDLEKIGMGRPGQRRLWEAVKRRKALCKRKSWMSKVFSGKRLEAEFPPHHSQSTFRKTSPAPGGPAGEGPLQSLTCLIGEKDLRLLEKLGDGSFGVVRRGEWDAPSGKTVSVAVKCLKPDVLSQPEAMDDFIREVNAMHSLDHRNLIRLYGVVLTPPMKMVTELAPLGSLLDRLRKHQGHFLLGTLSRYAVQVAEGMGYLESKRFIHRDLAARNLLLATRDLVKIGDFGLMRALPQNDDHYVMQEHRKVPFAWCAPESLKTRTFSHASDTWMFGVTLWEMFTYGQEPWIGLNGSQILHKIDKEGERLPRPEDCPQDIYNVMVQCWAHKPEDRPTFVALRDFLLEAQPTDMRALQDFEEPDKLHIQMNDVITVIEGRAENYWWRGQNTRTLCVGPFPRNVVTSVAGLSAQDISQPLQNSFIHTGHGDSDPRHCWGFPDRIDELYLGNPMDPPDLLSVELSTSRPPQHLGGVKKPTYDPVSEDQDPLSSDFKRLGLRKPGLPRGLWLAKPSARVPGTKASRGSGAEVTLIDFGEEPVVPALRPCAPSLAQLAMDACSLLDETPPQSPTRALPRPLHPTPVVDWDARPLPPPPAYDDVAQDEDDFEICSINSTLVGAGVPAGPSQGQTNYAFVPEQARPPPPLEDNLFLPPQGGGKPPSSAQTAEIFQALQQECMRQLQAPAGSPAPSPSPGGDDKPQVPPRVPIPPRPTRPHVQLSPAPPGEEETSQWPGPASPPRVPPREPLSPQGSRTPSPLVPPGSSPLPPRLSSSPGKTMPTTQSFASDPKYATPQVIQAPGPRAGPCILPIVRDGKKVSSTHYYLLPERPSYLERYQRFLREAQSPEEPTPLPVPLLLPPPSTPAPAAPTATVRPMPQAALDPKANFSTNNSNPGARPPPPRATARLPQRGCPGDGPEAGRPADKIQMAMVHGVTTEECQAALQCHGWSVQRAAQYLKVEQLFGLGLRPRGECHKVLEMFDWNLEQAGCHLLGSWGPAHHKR
BRK, sequence (Q13882 whole entry): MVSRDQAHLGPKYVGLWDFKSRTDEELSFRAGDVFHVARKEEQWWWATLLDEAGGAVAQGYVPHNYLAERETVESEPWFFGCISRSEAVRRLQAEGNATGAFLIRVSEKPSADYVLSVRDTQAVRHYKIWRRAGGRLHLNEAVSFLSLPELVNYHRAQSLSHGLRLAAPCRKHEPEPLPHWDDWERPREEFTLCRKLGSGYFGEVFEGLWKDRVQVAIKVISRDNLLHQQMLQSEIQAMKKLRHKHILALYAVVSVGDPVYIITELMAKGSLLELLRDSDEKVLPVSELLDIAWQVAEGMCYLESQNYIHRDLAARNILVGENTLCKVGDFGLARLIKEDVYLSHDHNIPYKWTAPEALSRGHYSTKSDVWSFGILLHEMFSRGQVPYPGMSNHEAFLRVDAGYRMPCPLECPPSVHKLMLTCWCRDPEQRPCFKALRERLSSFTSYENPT
LCK, sequence (P06239 whole entry): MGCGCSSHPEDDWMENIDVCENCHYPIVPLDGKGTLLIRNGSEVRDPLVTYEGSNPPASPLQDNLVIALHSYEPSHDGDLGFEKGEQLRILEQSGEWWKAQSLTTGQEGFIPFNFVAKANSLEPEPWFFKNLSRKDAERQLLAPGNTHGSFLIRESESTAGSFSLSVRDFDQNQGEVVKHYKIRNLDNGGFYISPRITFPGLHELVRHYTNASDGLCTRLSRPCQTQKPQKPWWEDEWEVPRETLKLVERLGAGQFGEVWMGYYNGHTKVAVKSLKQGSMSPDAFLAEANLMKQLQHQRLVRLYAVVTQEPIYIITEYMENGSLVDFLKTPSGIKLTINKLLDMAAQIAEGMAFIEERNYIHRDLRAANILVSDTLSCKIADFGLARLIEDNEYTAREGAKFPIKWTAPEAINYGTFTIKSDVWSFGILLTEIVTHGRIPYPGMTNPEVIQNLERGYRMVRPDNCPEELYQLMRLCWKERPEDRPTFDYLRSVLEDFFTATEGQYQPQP

Turning to `Cc1cc(C)c(C(=O)Nc2n[nH]c3c2CCn2cc(C(=O)N4CCCC4)cc2-3)c(C)c1` [Example A39-M1-B8], in test [1], the IC50 came out at 0.75 µM.

As to `Cc1ccccc1C(=O)Nc1n[nH]c2c1CCn1cc(C(=O)N3CCC(N4CCCCC4)CC3)cc1-2` [Example A21-M1-B34], the IC50 was determined as 5.34 µM in test [2], 0.89 µM in test [1] and 5.06 µM in test [3].

On to `Cc1ccccc1C(=O)Nc1n[nH]c2c1CCn1cc(C(=O)N3CCSCC3)cc1-2` [Example A21-M1-B38], for which the values for the concentration for half-maximal inhibition (IC50) in test [1] and in test [3] were 2.04 µM and 6.3 µM, respectively.

For the molecule `O=C(NC1CCCC1)c1cc2n(c1)CCc1c(NC(=O)c3ccccc3Cl)n[nH]c1-2` [Example A5-M1-B28], the IC50 in test [1] worked out at 4.33 µM.

As for `O=C(Nc1n[nH]c2c1CCn1cc(C(=O)N3CCSCC3)cc1-2)c1ccccc1Cl` [Example A5-M1-B38], the IC50 in test [1] worked out at 2.16 µM.

In the case of `O=C(NCCc1ccc(Cl)cc1)c1cc2n(c1)CCc1c(NC(=O)c3ccco3)n[nH]c1-2` [Example A9-M1-B13], the IC50 in test [4] came out at 5.85 µM.

As to `Cc1ccc(C(=O)Nc2n[nH]c3c2CCCn2cc(C(=O)NCC(C)C)cc2-3)c(C)c1` [Example A35-M2-B39], the half-inhibitory concentration (IC50) in test [1] was found to be 1.41 µM.

Take `O=C(NCCN1CCCCC1)c1cc2n(c1)CCc1c(NC(=O)c3ccccc3Cl)n[nH]c1-2` [Example A5-M1-B31]: in test [1], the IC50 came out at 3.16 µM.

As to `Cc1cc(C)c(C(=O)Nc2n[nH]c3c2CCn2cc(C(=O)N4CCC(N5CCCCC5)CC4)cc2-3)c(C)c1` [Example A39-M1-B34], the IC50 in test [1] stood at 5.54 µM.

As for `CCN(CC)C(=O)c1cc2n(c1)CCc1c(NC(=O)c3ccccc3C)n[nH]c1-2` [Example A21-M1-B17], the IC50 in test [1] came to 1.41 µM.

`O=C(Nc1n[nH]c2c1CCn1cc(C(=O)N3CCCC3)cc1-2)c1ccccc1F` [Example A20-M1-B8]: the values for the concentration for half-maximal inhibition (IC50) in test [2], in test [1] and in test [4] were 2.43 µM, 1.04 µM and 2.02 µM, respectively.

With `O=C(NCc1ccccn1)c1cc2n(c1)CCc1c(NC(=O)c3ccccc3Cl)n[nH]c1-2` [Example A5-M1-B26], the IC50 in test [1] was determined as 3.04 µM.

Take `Cc1ccc(C(=O)Nc2n[nH]c3c2CCn2cc(C(=O)NCC4CC4)cc2-3)c(C)c1` [Example A35-M1-B41]: the half-inhibitory concentration (IC50) in test [1] was determined as 2.87 µM.

On to `COCCNC(=O)c1cc2n(c1)CCCc1c(NC(=O)c3ccccc3Cl)n[nH]c1-2` [Example A5-M2-B33], for which the half-maximal inhibitory concentration (IC50) in test [1] turned out to be 2.47 µM.

For `CN1CCN(c2ccc(C(=O)Nc3n[nH]c4c3CCn3cc(C(=O)N(C)C)cc3-4)cc2)CC1` [Example A16-M1-B19], the half-inhibitory concentration (IC50) in test [4] came out at 4.47 µM.

With `Cc1ccccc1C(=O)Nc1n[nH]c2c1CCn1cc(C(=O)N3CCCC3)cc1-2` [Example A21-M1-B8], the IC50 was determined as 4.94 µM in test [2] and 0.63 µM in test [1].

Turning to `CCCN1CCN(C(=O)c2cc3n(c2)CCc2c(NC(=O)c4ccccc4F)n[nH]c2-3)CC1` [Example A20-M1-B32], the IC50 in test [1] stood at 3.06 µM.

As to `CC(C)CNC(=O)c1cc2n(c1)CCc1c(NC(=O)c3ccccc3Cl)n[nH]c1-2` [Example A5-M1-B39], the 50% inhibitory concentration (IC50) in test [1] was found to be 1.94 µM.

Consider `C=CCNC(=O)c1cc2n(c1)CCCc1c(NC(=O)c3ccccc3Cl)n[nH]c1-2` [Example A5-M2-B36], for which the IC50 in test [1] was 0.74 µM.

For the molecule `Cc1ccccc1C(=O)Nc1n[nH]c2c1CCCn1cc(C(=O)NCC3CC3)cc1-2` [Example A21-M2-B41], in test [1], the IC50 turned out to be 1.56 µM.

Consider `O=C(NCC1CC1)c1cc2n(c1)CCCc1c(NC(=O)c3c(Cl)cccc3Cl)n[nH]c1-2` [Example A38-M2-B41], for which, in test [1], the half-inhibitory concentration (IC50) came out at 2.82 µM.

For `CCN1CCN(C(=O)c2cc3n(c2)CCc2c(NC(=O)c4ccccc4Cl)n[nH]c2-3)CC1` [Example A5-M1-B37], the values for the 50% inhibitory concentration (IC50) in test [2], in test [1] and in test [3] were 5.1 µM, 1 µM and 5.77 µM, respectively.

Regarding `O=C(NC1CC1)c1cc2n(c1)CCc1c(NC(=O)c3ccccc3Cl)n[nH]c1-2` [Example A5-M1-B30], the IC50 in test [1] was determined as 4.71 µM.

On to `O=C(NCCN1CCCCC1)c1cc2n(c1)CCCc1c(NC(=O)c3ccccc3Cl)n[nH]c1-2` [Example A5-M2-B31], for which the IC50 in test [1] stood at 3.51 µM.

Take `C=CCNC(=O)c1cc2n(c1)CCc1c(NC(=O)c3ccccc3Cl)n[nH]c1-2` [Example A5-M1-B36]: the IC50 in test [1] came to 4.12 µM.

As to `CC(C)NC(=O)c1cc2n(c1)CCc1c(NC(=O)c3ccccc3Cl)n[nH]c1-2` [Example A5-M1-B10], in test [1], the IC50 is 3.25 µM.

For the molecule `COCCNC(=O)c1cc2n(c1)CCCc1c(NC(=O)c3ccc(C)cc3C)n[nH]c1-2` [Example A35-M2-B33], the IC50 in test [1] turned out to be 3.82 µM.

As for `Cc1ccccc1C(=O)Nc1n[nH]c2c1CCn1cc(C(=O)NCC3CC3)cc1-2` [Example A21-M1-B41], the IC50 in test [1] was found to be 2.45 µM.

On to `O=C(Nc1n[nH]c2c1CCn1cc(C(=O)N3CCCCC3)cc1-2)c1ccccc1Cl` [Example A5-M1-B42], for which the IC50 is 1.79 µM in test [2], 0.44 µM in test [1], 3.64 µM in test [3] and 6.61 µM in test [4].

For the molecule `Cc1ccc(C(=O)Nc2n[nH]c3c2CCn2cc(C(=O)NC4CC4)cc2-3)c(C)c1` [Example A35-M1-B30], in test [1], the IC50 is 6.56 µM.

`Cc1ccc(C(=O)Nc2n[nH]c3c2CCn2cc(C(=O)N4CCCCC4)cc2-3)c(C)c1` [Example A35-M1-B42]: the IC50 in test [1] came out at 2.2 µM.

With `CCC(C)NC(=O)c1cc2n(c1)CCc1c(NC(=O)c3ccccc3Cl)n[nH]c1-2` (centres unmarked) [Example A5-M1-B27], the IC50 in test [1] stood at 2.4 µM.

Regarding `CC(C)CNC(=O)c1cc2n(c1)CCCc1c(NC(=O)C(C)C)n[nH]c1-2` [Example A27-M2-B39], the IC50 in test [1] was 3.17 µM.

As to `Cc1ccc(C(=O)Nc2n[nH]c3c2CCn2cc(C(=O)NCC(C)C)cc2-3)c(C)c1` [Example A35-M1-B39], in test [1], the IC50 is 2.85 µM.

As to `O=C(NCC1CC1)c1cc2n(c1)CCCc1c(NC(=O)c3ccccc3Cl)n[nH]c1-2` [Example A5-M2-B41], the IC50 in test [1] was 0.44 µM and 0.24 µM.

Consider `O=C(NCc1ccccn1)c1cc2n(c1)CCCc1c(NC(=O)c3ccccc3Cl)n[nH]c1-2` [Example A5-M2-B26], for which the IC50 in test [1] is 4.84 µM.

As to `O=C(NCC1CC1)c1cc2n(c1)CCc1c(NC(=O)c3c(Cl)cccc3Cl)n[nH]c1-2` [Example A38-M1-B41], in test [5], the IC50 is 4.13 µM.

Turning to `O=C(NCc1ccncc1)c1cc2n(c1)CCc1c(NC(=O)c3ccccc3Cl)n[nH]c1-2` [Example A5-M1-B25], in test [1], the concentration for half-maximal inhibition (IC50) turned out to be 1.92 µM.

On to `CCN(CC)C(=O)c1cc2n(c1)CCc1c(NC(=O)c3ccccc3Cl)n[nH]c1-2` [Example A5-M1-B17], for which, in test [1], the IC50 came to 2.16 µM.

For the molecule `Cc1ccc(C(=O)Nc2n[nH]c3c2CCn2cc(C(=O)NC(C)C)cc2-3)c(C)c1` [Example A35-M1-B10], the IC50 in test [1] turned out to be 3.13 µM.

As for `C=CCNC(=O)c1cc2n(c1)CCCc1c(NC(=O)c3ccc(C)cc3C)n[nH]c1-2` [Example A35-M2-B36], the IC50 in test [1] came to 3.98 µM.

As to `Cc1ccc(C(=O)Nc2n[nH]c3c2CCn2cc(C(=O)N4CCOCC4)cc2-3)c(C)c1` [Example A35-M1-B7], in test [1], the IC50 is 5.91 µM.

Turning to `COc1ccccc1C(=O)Nc1n[nH]c2c1CCn1cc(C(=O)N3CCCC3)cc1-2` [Example A6-M1-B8], the IC50 in test [1] came to 1.89 µM.

Regarding `O=C(NCc1cccs1)c1cc2n(c1)CCc1c(NC(=O)c3cccc(F)c3)n[nH]c1-2` [Example A8-M1-B16], the 50% inhibitory concentration (IC50) in test [4] turned out to be 2.68 µM.

With `CC(C)N1CCN(C(=O)c2cc3n(c2)CCc2c(NC(=O)c4ccccc4Cl)n[nH]c2-3)CC1` [Example A5-M1-B40], the IC50 in test [1] came to 1.73 µM.

Turning to `CCCN1CCN(C(=O)c2cc3n(c2)CCc2c(NC(=O)c4ccccc4Cl)n[nH]c2-3)CC1` [Example A5-M1-B32], in test [1], the IC50 came out at 1.38 µM.

As to `O=C(Nc1n[nH]c2c1CCn1cc(C(=O)N3CCOCC3)cc1-2)c1ccccc1Cl` [Example A5-M1-B7], the IC50 in test [1] turned out to be 1.43 µM.

As for `O=C(NCc1cccs1)c1cc2n(c1)CCc1c(NC(=O)c3ccco3)n[nH]c1-2` [Example A9-M1-B16], the IC50 in test [4] is 0.85 µM.

Consider `O=C(Nc1n[nH]c2c1CCn1cc(C(=O)N3CCCC3)cc1-2)c1ccccc1Cl` [Example A5-M1-B8], for which the IC50 in test [2] is 1.86 µM and 2.23 µM; in test [1], 0.63 µM and 0.48 µM; in test [4], 5.98 µM.

Turning to `O=C(NCc1cccs1)c1cc2n(c1)CCc1c(NC(=O)c3ccc4c(c3)OCO4)n[nH]c1-2` [Example A11-M1-B16], the IC50 in test [4] was 2.66 µM.

In the case of `CCCN1CCN(C(=O)c2cc3n(c2)CCc2c(NC(=O)c4ccc(C)cc4C)n[nH]c2-3)CC1` [Example A35-M1-B32], the IC50 in test [1] is 1.21 µM.

For the molecule `CC(C)CNC(=O)c1cc2n(c1)CCCc1c(NC(=O)c3ccccc3Cl)n[nH]c1-2` [Example A5-M2-B39], the IC50 in test [1] was found to be 0.55 µM.

For the origin of these results see patent publication US9127015B2, “Tricyclopyrazole derivatives” (NERVIANO MEDICAL SCIENCES S.R.L., priority 2009, dated 2015).
